What was measured:
Type in all cases: in vivo, human
ARDS patients [1] = assay: eICU (v1) dataset, statin intervention by Model C.4 subphenotype; parameters: Alive: unit not given here; conditions: for Alive / Dead / Mortality: no consideration to number doses and minimum dose size
Description: The dataset from the eICU (v1) dataset was used for analysis. The intervention of interest was statins.
The individual statins were then examined with no consideration to number of doses and minimum dose size. Using this methodology, there were several differential responses identified (bolded and underlined cells as shown below in Table 81).

ARDS patients [2] = assay: eICU data filtered for patients without prior indication for statin use, statin intervention by subphenotype
Description: This included patients with history of angina, congestive heart failure, coronary artery bypass grafting, multiple coronary artery bypass, hypertension requiring treatment, previous acute myocardial infarction, peripheral vascular disease, previous coronary intervention procedure, stroke, and/or transient ischemic attack.

ARDS patients [3] = assay: eICU (v1) dataset, statin intervention by Model C.4 subphenotype; parameters: Alive: unit not given here
[4] = admitted with drug or initiated during ICU stay, All Patients
[5] = admitted with drug or initiated during ICU stay, Subphenotype A
[6] = admitted with drug or initiated during ICU stay, Subphenotype B
[7] = initiated during ICU stay, All Patients
[8] = initiated during ICU stay, Subphenotype A
[9] = initiated during ICU stay, Subphenotype B
[10] = on drug at time of ICU admit, All Patients
[11] = on drug at time of ICU admit, Subphenotype A
[12] = on drug at time of ICU admit, Subphenotype B

CC[C@H](C)C(=O)O[C@H]1C[C@@H](C)C=C2C=C[C@H](C)[C@H](CC[C@@H]3C[C@@H](O)CC(=O)O3)[C@H]21 [Lovastatin]
Alive (ARDS patients [1]; All Patients): 12 | Dead (ARDS patients [1]; All Patients): 1 | Mortality (ARDS patients [1]; All Patients): 8% | Alive (ARDS patients [1]; Subphenotype A): 10 | Dead (ARDS patients [1]; Subphenotype A): 0 | Mortality (ARDS patients [1]; Subphenotype A): 0% | Alive (ARDS patients [1]; Subphenotype B): 2 | Dead (ARDS patients [1]; Subphenotype B): 1 | Mortality (ARDS patients [1]; Subphenotype B): 33%

CC[C@H](C)C(=O)O[C@H]1C[C@H](O)C=C2C=C[C@H](C)[C@H](CC[C@@H](O)C[C@@H](O)CC(=O)O)[C@H]21 [Pravastatin]
Alive (ARDS patients [1]; All Patients): 29 | Dead (ARDS patients [1]; All Patients): 6 | Mortality (ARDS patients [1]; All Patients): 17% | Alive (ARDS patients [1]; Subphenotype A): 20 | Dead (ARDS patients [1]; Subphenotype A): 4 | Mortality (ARDS patients [1]; Subphenotype A): 17% | Alive (ARDS patients [1]; Subphenotype B): 9 | Dead (ARDS patients [1]; Subphenotype B): 2 | Mortality (ARDS patients [1]; Subphenotype B): 18%

CC(C)c1nc(N(C)S(C)(=O)=O)nc(-c2ccc(F)cc2)c1/C=C/[C@@H](O)C[C@@H](O)CC(=O)O [Rosuvastatin]
Alive (ARDS patients [1]; All Patients): 32 | Dead (ARDS patients [1]; All Patients): 4 | Mortality (ARDS patients [1]; All Patients): 11% | Alive (ARDS patients [1]; Subphenotype A): 23 | Dead (ARDS patients [1]; Subphenotype A): 2 | Mortality (ARDS patients [1]; Subphenotype A): 8% | Alive (ARDS patients [1]; Subphenotype B): 9 | Dead (ARDS patients [1]; Subphenotype B): 2 | Mortality (ARDS patients [1]; Subphenotype B): 18%

CC(C)c1c(C(=O)Nc2ccccc2)c(-c2ccccc2)c(-c2ccc(F)cc2)n1CC[C@@H](O)C[C@@H](O)CC(=O)O [atorvastatin]
Mortality Rate (ARDS patients [1]; [4]): 15.70 | Alive (ARDS patients [1]; All Patients): 289 | Dead (ARDS patients [1]; All Patients): 54 | Mortality (ARDS patients [1]; All Patients): 16% | Alive (ARDS patients [1]; Subphenotype A): 209 | Dead (ARDS patients [1]; Subphenotype A): 26 | Mortality (ARDS patients [1]; Subphenotype A): 11% | Alive (ARDS patients [1]; Subphenotype B): 80 | Dead (ARDS patients [1]; Subphenotype B): 28 | Mortality (ARDS patients [1]; Subphenotype B): 26% | Alive (ARDS patients [2]; [4]): 51 | Dead (ARDS patients [2]; [4]): 12 | Mortality Rate (ARDS patients [2]; [4]): 19.05 | Alive (ARDS patients [2]; [5]): 40 | Dead (ARDS patients [2]; [5]): 6 | Mortality Rate (ARDS patients [2]; [5]): 13.04 | Alive (ARDS patients [2]; [6]): 11 | Dead (ARDS patients [2]; [6]): 6 | Mortality Rate (ARDS patients [2]; [6]): 35.29 | Alive (ARDS patients [2]; [7]): 42 | Dead (ARDS patients [2]; [7]): 9 | Mortality Rate (ARDS patients [2]; [7]): 17.65 | Alive (ARDS patients [2]; [8]): 34 | Dead (ARDS patients [2]; [8]): 5 | Mortality Rate (ARDS patients [2]; [8]): 12.82 | Alive (ARDS patients [2]; [9]): 8 | Dead (ARDS patients [2]; [9]): 4 | Mortality Rate (ARDS patients [2]; [9]): 33.33 | Alive (ARDS patients [2]; [10]): 9 | Dead (ARDS patients [2]; [10]): 3 | Mortality Rate (ARDS patients [2]; [10]): 25 | Alive (ARDS patients [2]; [11]): 6 | Dead (ARDS patients [2]; [11]): 1 | Mortality Rate (ARDS patients [2]; [11]): 14.29 | Alive (ARDS patients [2]; [12]): 3 | Dead (ARDS patients [2]; [12]): 2 | Mortality Rate (ARDS patients [2]; [12]): 40 | Alive (ARDS patients [3]; [4]): 290 | Dead (ARDS patients [3]; [4]): 54 | Alive (ARDS patients [3]; [5]): 209 | Dead (ARDS patients [3]; [5]): 26 | Mortality Rate (ARDS patients [3]; [5]): 11.06 | Alive (ARDS patients [3]; [6]): 81 | Dead (ARDS patients [3]; [6]): 28 | Mortality Rate (ARDS patients [3]; [6]): 25.69 | Alive (ARDS patients [3]; [7]): 210 | Dead (ARDS patients [3]; [7]): 40 | Mortality Rate (ARDS patients [3]; [7]): 16 | Alive (ARDS patients [3]; [8]): 149 | Dead (ARDS patients [3]; [8]): 19 | Mortality Rate (ARDS patients [3]; [8]): 11.31 | Alive (ARDS patients [3]; [9]): 61 | Dead (ARDS patients [3]; [9]): 21 | Mortality Rate (ARDS patients [3]; [9]): 25.61 | Alive (ARDS patients [3]; [10]): 80 | Dead (ARDS patients [3]; [10]): 14 | Mortality Rate (ARDS patients [3]; [10]): 14.89 | Alive (ARDS patients [3]; [11]): 60 | Dead (ARDS patients [3]; [11]): 7 | Mortality Rate (ARDS patients [3]; [11]): 10.45 | Alive (ARDS patients [3]; [12]): 20 | Dead (ARDS patients [3]; [12]): 7 | Mortality Rate (ARDS patients [3]; [12]): 25.93
